Patent US20250302784A1, “MYOBLAST PROLIFERATION PROMOTER AND MYOBLAST-PROLIFERATION PROMOTING COMPOSITION, AND MUSCLE ATROPHY INHIBITOR AND MUSCLE-ATROPHY INHIBITING COMPOSITION” (MARUZEN PHARMACEUTICALS CO., LTD., priority 2022, published 2025)

Tests used:
[1] = system: rat model of disuse muscle atrophy; assay: Test for muscle atrophy inhibition effect in rat model of disuse muscle atrophy (hindlimb suspension); type: in vivo, Wistar rats
Description: Whether muscle atrophy was inhibited by orally administering the compound represented by Structural Formula (1) (using the compound available from Cayman Chemical) to a rat model of disuse muscle atrophy for 14 days was tested according to the following testing method.
Seven week-old male Wistar (Crlj: WI) rats were acquired from Charles River Laboratories Japan, Inc., and were bred in the environment where a temperature was 23±3° C. and the humidity was 55±15% and in a cycle of 12 hours in light and 12 hours in dark. The rats were acclimated for one week before use, and were allowed to freely intake a solid feed (CRF-1, available from Oriental Yeast Co., Ltd.) and tap water.
After one week of acclimation, the Wistar rats were randomly divided into groups of eight. The rats were bred for 14 days in the state where the tail of each rat was held with clips so that the rat's hind legs were raised above the floor according to the method of Morey-Holton E R et al. During the breeding period, the rats were allowed to move around within a case with their forelimbs, and were allowed to freely intake water and a feed.
The test groups were (1) a normal group (without hindlimb suspension), (2) a control group (hindlimb suspension+0 mg/kg of the compound represented by Structural Formula (1)), (3) a group with the compound represented by Structural Formula (1) (hindlimb suspension+125 mg/kg of the compound represented by Structural Formula (1)).
The compound represented by Structural Formula (1) was dissolved in water, and the solution was administered by oral gavage every day for 14 days. Water was administered to the control group.
At the end of the test, the rats were euthanized by exsanguination under isoflurane anesthesia. Then, the soleus muscles were removed and the muscle weight was measured. In Table 2, the soleus muscle weight is an average value.

[2] = system: skeletal muscle-derived myoblasts (C2C12) of mice; assay: Test for myoblast-proliferation promotion effect (MTT assay); type: cell-based; settings: for Myoblast proliferation promotion rate (%): cultured 2 days, MTT, rate = A/B×100 vs cells without test sample
Description: A test on a myoblast proliferation effect of the compound represented by Structural Formula (1) (using the compound available from Sigma-Aldrich) was performed according to the following testing method.
After culturing skeletal muscle-derived myoblasts (C2C12) of mice in a Dulbecco's modified eagle medium (DMEM) containing 10% FBS, the cells were collected by trypsinization. The collected cells were diluted with a 5% FBS-containing DMEM so that a concentration of the cells was to be 2.0×10^4 cells/mL. Then, the dilution was seeded by 100 μL per well in a 96-well plate, followed by culturing for 6 hours. After completing the culture, a test sample dissolved in a 5% FBS-containing DMEM (see Table 1 below for the final concentration) was added by 100 μL per well, followed by culturing for 2 days. Even in the case where the test sample was not added, culturing was performed in the same manner except that the test sample was not added.
The myoblast-proliferation promotion effect was measured using an MTT assay. After completing the culture, the medium was removed, and MTT dissolved in a PBS buffer solution (PBS(−)) at a final concentration of 0.4 mg/mL was added by 100 μL per well. After culturing for 2 hours, blue formazan generated within the cells was extracted with 100 μL of 2-propanol. After the extraction, absorbance at a wavelength of 570 nm was measured. In addition, absorbance at a wavelength of 650 nm was measured as turbidity. The difference between the absorbance at the wavelength of 570 nm and the absorbance at the wavelength of 650 nm was used to determine an amount of blue formazan generated.
The myoblast proliferation promotion rate (%) was calculated from the obtained results according to the following equation.
Myoblast proliferation promotion rate (%)=A/B×100
In the equation above, A and B are as follows. • A: An amount of blue formazan generated in the cells to which the test sample was added. • B: An amount of blue formazan generated in the cells to which the test sample was not added.

## O=C(O)CCc1ccc(O)c(O)c1 [3,4-dihydroxyhydrocinnamic acid]
[1]; hindlimb-suspended male Wistar rats, 125 mg/kg oral gavage daily for 14 days, average value (normal group 359.1, control group 139.3)
  Soleus muscle weight: 151.3
[1]; hindlimb-suspended rats, 125 mg/kg oral, 14 days
  Soleus muscle weight compared to the control group (in words): increased compared to the control group
[1]; rat model of disuse muscle atrophy, 125 mg/kg oral, 14 days
  Muscle atrophy inhibition (in words): inhibited muscle atrophy
[2]; conclusion from Table 1
  Myoblast-proliferation promotion effect (in words): excellent myoblast-proliferation promotion effect
[2]; test sample 25 μmol/L
  Myoblast proliferation promotion rate (%): 106.4%
[2]; test sample 100 μmol/L
  Myoblast proliferation promotion rate (%): 108.0%
